Experimental data reported in PubChem BioAssay AID256 (DTP/NCI, 2004).
Where “and” joins values, the source holds several entries; their conditions need not be identical. Equal entries are not always repeated. Toxic doses and inconclusive results are not listed. How the source made its calls: active means survival T/C of 150% or more; inactive means T/C below 125% in these data.

System: CD2F1 mice, L1210 leukemia ip, survival T/C
Assay: NCI In Vivo Anticancer Drug Screen. Data for tumor model L1210 Leukemia (intraperitoneal) in CD2F1 (CDF1) mice
Conditions: higher = longer survival
Method in brief: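 Implant tumor; dose compound or vehicle; measure endpoint in both groups; report treated divided by control.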

[1] = endpoint: mean survival time, dose: 25.0 mg/kg/injection, schedule: Q01DX009 (ip), vehicle: water
[2] = endpoint: mean survival time, dose: 50.0 mg/kg/injection, schedule: Q01DX009 (ip), vehicle: water
[3] = endpoint: mean survival time, dose: 100.0 mg/kg/injection, schedule: Q01DX001 (ip), vehicle: saline with Tween-80
[4] = endpoint: mean survival time, dose: 100.0 mg/kg/injection, schedule: Q01DX009 (ip), vehicle: saline with Tween-80
[5] = endpoint: mean survival time, dose: 200.0 mg/kg/injection, schedule: Q01DX009 (ip), vehicle: saline with Tween-80
[6] = endpoint: mean survival time, dose: 400.0 mg/kg/injection, schedule: Q01DX009 (ip), vehicle: saline with Tween-80
[7] = endpoint: mean survival time, dose: 100.0 mg/kg/injection, schedule: Q01DX009 (ip), vehicle: saline
[8] = endpoint: mean survival time, dose: 100.0 mg/kg/injection, schedule: Q04DX003 (ip), vehicle: saline with Tween-80
[9] = endpoint: mean survival time, dose: 200.0 mg/kg/injection, schedule: Q01DX009 (ip), vehicle: saline
[10] = endpoint: mean survival time, dose: 200.0 mg/kg/injection, schedule: Q04DX003 (ip), vehicle: saline with Tween-80
[11] = endpoint: mean survival time, dose: 25.0 mg/kg/injection, schedule: Q01DX009 (ip), vehicle: saline with Tween-80
[12] = endpoint: mean survival time, dose: 50.0 mg/kg/injection, schedule: Q01DX009 (ip), vehicle: saline with Tween-80
[13] = endpoint: mean survival time, dose: 50.0 mg/kg/injection, schedule: Q01DX009 (ip), vehicle: Klucel (hydroxypropylcellulose) (HPC)
[14] = endpoint: mean survival time, dose: 100.0 mg/kg/injection, schedule: Q01DX009 (ip), vehicle: Klucel (hydroxypropylcellulose) (HPC)
[15] = endpoint: mean survival time, dose: 200.0 mg/kg/injection, schedule: Q01DX009 (ip), vehicle: Klucel (hydroxypropylcellulose) (HPC)
[16] = endpoint: mean survival time, dose: 400.0 mg/kg/injection, schedule: Q01DX009 (ip), vehicle: Klucel (hydroxypropylcellulose) (HPC)
[17] = endpoint: mean survival time, dose: 100.0 mg/kg/injection, schedule: Q04DX003 (ip), vehicle: Klucel (hydroxypropylcellulose) (HPC)
[18] = endpoint: mean survival time, dose: 200.0 mg/kg/injection, schedule: Q04DX003 (ip), vehicle: Klucel (hydroxypropylcellulose) (HPC)
[19] = endpoint: mean survival time, dose: 400.0 mg/kg/injection, schedule: Q04DX003 (ip), vehicle: Klucel (hydroxypropylcellulose) (HPC)

Measured: T/C

COc1cc2ccncc2cc1O
inactive: [1] 96 % of control | [2] 96 % of control

CC(N)(CCOCc1ccccc1)C(=O)O (centres undefined)
inactive: [3] 97 % of control | [4] 103 % of control | endpoint: mean survival time, dose: 200.0 mg/kg/injection, schedule: Q01DX001 (ip), vehicle: saline with Tween-80 96 % of control | [5] 101 % of control | endpoint: mean survival time, dose: 400.0 mg/kg/injection, schedule: Q01DX001 (ip), vehicle: saline with Tween-80 103 % of control | [6] 101 % of control

CCC1(c2ccccc2)C(=O)N(Cl)C(=O)N(Cl)C1=O
inactive: endpoint: mean survival time, dose: 25.0 mg/kg/injection, schedule: Q01DX001 (ip), vehicle: saline with Tween-80 101 % of control | endpoint: mean survival time, dose: 50.0 mg/kg/injection, schedule: Q01DX001 (ip), vehicle: saline with Tween-80 95 % of control | [3] 95 % of control and 100 % of control

CC(O)C1OC(n2cnc3c(=O)[nH]cnc32)CC1O (centres undefined)
inactive: endpoint: median survival time, dose: 12.5 mg/kg/injection, schedule: Q01DX005 (ip), vehicle: water 100 % of control | endpoint: median survival time, dose: 25.0 mg/kg/injection, schedule: Q01DX005 (ip), vehicle: water 100 % of control | endpoint: median survival time, dose: 50.0 mg/kg/injection, schedule: Q01DX005 (ip), vehicle: water 104 % of control | endpoint: median survival time, dose: 100.0 mg/kg/injection, schedule: Q01DX005 (ip), vehicle: water 102 % of control | endpoint: median survival time, dose: 200.0 mg/kg/injection, schedule: Q01DX005 (ip), vehicle: water 102 % of control

NCCNc1ccc(NCCN)c2c1C(=O)c1ccccc1C2=O
inactive: endpoint: mean survival time, dose: 16.0 mg/kg/injection, schedule: Q01DX009 (ip), vehicle: acid diluted with saline 98 % of control
active: endpoint: mean survival time, dose: 2.0 mg/kg/injection, schedule: Q01DX009 (ip), vehicle: acid diluted with saline 159 % of control | endpoint: mean survival time, dose: 4.0 mg/kg/injection, schedule: Q01DX009 (ip), vehicle: acid diluted with saline 175 % of control | endpoint: mean survival time, dose: 6.25 mg/kg/injection, schedule: Q01DX009 (ip), vehicle: distilled water + Tween-80 156 % of control | endpoint: mean survival time, dose: 8.0 mg/kg/injection, schedule: Q01DX009 (ip), vehicle: acid diluted with saline 345 % of control | endpoint: mean survival time, dose: 12.5 mg/kg/injection, schedule: Q01DX009 (ip), vehicle: distilled water + Tween-80 227 % of control | endpoint: mean survival time, dose: 25.0 mg/kg/injection, schedule: Q01DX009 (ip), vehicle: distilled water + Tween-80 272 % of control

CCn1c(COc2ccc(Br)cc2)c(COC(=O)c2cccc(Cl)c2)c2ccccc21
inactive: [4] 94 % of control | [5] 92 % of control | [6] 94 % of control

COC(=O)C(C)CC(C)(C=O)OC (centres undefined)
inactive: [4] 102 % of control | [5] 96 % of control | [6] 96 % of control

NNC(=O)Nc1cccnc1
inactive: endpoint: mean survival time, dose: 18.75 mg/kg/injection, schedule: Q01DX009 (ip), vehicle: saline 106 % of control | endpoint: mean survival time, dose: 37.5 mg/kg/injection, schedule: Q01DX009 (ip), vehicle: saline 98 % of control | endpoint: mean survival time, dose: 75.0 mg/kg/injection, schedule: Q01DX009 (ip), vehicle: saline 101 % of control

C=C1C2CCC3C2C(C)(C)CCCC13C (centres undefined)
inactive: [7] 98 % of control | [8] 103 % of control | [9] 97 % of control | [10] 104 % of control | endpoint: mean survival time, dose: 400.0 mg/kg/injection, schedule: Q01DX009 (ip), vehicle: saline 101 % of control | endpoint: mean survival time, dose: 400.0 mg/kg/injection, schedule: Q04DX003 (ip), vehicle: saline with Tween-80 93 % of control

O=C(O)c1cccc2c1-c1ccccc1C(Br)C2Br (centres undefined)
inactive: [11] 93 % of control | endpoint: mean survival time, dose: 50.0 mg/kg/injection, schedule: Q01DX005 (ip), vehicle: saline with Tween-80 100 % of control | [12] 93 % of control | endpoint: mean survival time, dose: 100.0 mg/kg/injection, schedule: Q01DX005 (ip), vehicle: saline with Tween-80 88 % of control | [4] 89 % of control

COC(=O)C1=NNC(C(=O)OC)=C(c2ccccc2)C(c2ccccc2)=N1
inactive: endpoint: mean survival time, dose: 12.5 mg/kg/injection, schedule: Q01DX009 (ip), vehicle: Klucel (hydroxypropylcellulose) (HPC) 95 % of control | endpoint: mean survival time, dose: 25.0 mg/kg/injection, schedule: Q01DX009 (ip), vehicle: Klucel (hydroxypropylcellulose) (HPC) 91 % of control | [13] 98 % of control | [14] 101 % of control | [15] 109 % of control | [16] 114 % of control

Nc1nc(Cl)c2ncn(C3CC(O)C(CO)C3)c2n1 (centres undefined)
inactive: [7] 106 % of control | [9] 106 % of control

COC(=O)c1cccc2c(Br)cc3ccccc3c12
inactive: [14] 98 % of control | [17] 102 % of control | [15] 103 % of control | [18] 98 % of control | [16] 110 % of control | [19] 108 % of control

Nc1cccc(CCCCc2cccc(S(=O)(=O)F)c2)c1
inactive: [12] 97 % of control | [4] 95 % of control | [8] 100 % of control | [5] 97 % of control | [10] 95 % of control

CNC(=O)c1n[nH]c(C)c1N
inactive: [1] 97 % of control | [2] 98 % of control | endpoint: mean survival time, dose: 100.0 mg/kg/injection, schedule: Q01DX009 (ip), vehicle: water 101 % of control | endpoint: mean survival time, dose: 200.0 mg/kg/injection, schedule: Q01DX009 (ip), vehicle: water 98 % of control | endpoint: mean survival time, dose: 400.0 mg/kg/injection, schedule: Q01DX009 (ip), vehicle: water 101 % of control

Cc1ccc(S(=O)(=O)NC(=O)C2C(=O)CC3(CCCCC3)CC2=O)cc1
inactive: endpoint: median survival time, dose: 50.0 mg/kg/injection, schedule: Q01DX009 (ip), vehicle: Klucel (hydroxypropylcellulose) (HPC) 100 % of control | endpoint: median survival time, dose: 100.0 mg/kg/injection, schedule: Q01DX009 (ip), vehicle: Klucel (hydroxypropylcellulose) (HPC) 102 % of control

O=C(OC1C=CCC=C1)c1cc([N+](=O)[O-])cc([N+](=O)[O-])c1
inactive: endpoint: mean survival time, dose: 100.0 mg/kg/injection, schedule: Q01DX009 (ip), vehicle: other 101 % of control | endpoint: mean survival time, dose: 200.0 mg/kg/injection, schedule: Q01DX009 (ip), vehicle: other 95 % of control | endpoint: mean survival time, dose: 400.0 mg/kg/injection, schedule: Q01DX009 (ip), vehicle: other 93 % of control

Cc1cc2cc3cc(C)c(N)cc3nc2cc1N
inactive: endpoint: mean survival time, dose: 3.12 mg/kg/injection, schedule: Q01DX009 (ip), vehicle: saline with Tween-80 103 % of control and 106 % of control | endpoint: mean survival time, dose: 6.25 mg/kg/injection, schedule: Q01DX009 (ip), vehicle: saline with Tween-80 101 % of control and 107 % of control | endpoint: mean survival time, dose: 12.5 mg/kg/injection, schedule: Q01DX009 (ip), vehicle: saline with Tween-80 106 % of control | [11] 98 % of control and 106 % of control | [12] 86 % of control and 97 % of control | [4] 92 % of control

O=C(CCCC1CCCCC1)Cc1ccccc1
inactive: endpoint: mean survival time, dose: 100.0 mg/kg/injection, schedule: Q04DX003 (ip), vehicle: acetone 96 % of control | endpoint: mean survival time, dose: 200.0 mg/kg/injection, schedule: Q04DX003 (ip), vehicle: acetone 94 % of control | endpoint: mean survival time, dose: 400.0 mg/kg/injection, schedule: Q04DX003 (ip), vehicle: acetone 102 % of control

O=C(Cc1ccc([N+](=O)[O-])cc1)c1ccc(O)cc1O
inactive: [17] 96 % of control | [18] 98 % of control | [19] 103 % of control

CSc1nc(SC)c2c3c(N)ncnc3n(C3OC(CO)C(O)C3O)c2n1 (centres undefined)
inactive: endpoint: mean survival time, dose: 12.5 mg/kg/injection, schedule: Q01DX005 (ip), vehicle: other 107 % of control | endpoint: mean survival time, dose: 25.0 mg/kg/injection, schedule: Q01DX005 (ip), vehicle: other 121 % of control | endpoint: mean survival time, dose: 100.0 mg/kg/injection, schedule: Q01DX005 (ip), vehicle: other 119 % of control | endpoint: mean survival time, dose: 250.0 mg/kg/injection, schedule: Q01DX005 (ip), vehicle: other 121 % of control

O=C1Cc2ccccc2C(=O)N1
inactive: endpoint: mean survival time, dose: 100.0 mg/kg/injection, schedule: Q01DX009 (ip), vehicle: saline sonified 97 % of control | endpoint: mean survival time, dose: 200.0 mg/kg/injection, schedule: Q01DX009 (ip), vehicle: saline sonified 98 % of control | endpoint: mean survival time, dose: 400.0 mg/kg/injection, schedule: Q01DX009 (ip), vehicle: saline sonified 89 % of control

CC(Cl)CN(CC(C)Cl)c1ccc(N=Nc2ccccc2)cc1 (centres undefined)
inactive: [13] 100 % of control | [14] 106 % of control | [15] 90 % of control
